This is an account of results in patent US20130184257A1, “PIPERIDINYL-SUBSTITUTED LACTAMS AS GPR119 MODULATORS” (priority 2010, published 2013).

In the experiment the test system is modified version of the GPR119 receptor (94% identity to human receptor) stably expressed in HEK-293 cells. In words: cAMP Production Assay (LANCE cAMP kit, TR-FRET). As to conditions: for cAMP production in HEK-293 cells: HEK-293 cells expressing modified GPR119, test compounds 0.2 nM to 10 μM, one-hour incubation at ambient temperature; for Fold over baseline: increase in cAMP relative to basal levels, 1.5-fold or greater = agonist activity. The format is cell-based. On the procedure: The assay utilized HEK-293 cells that stably express a modified version of the GPR119 receptor (94% identity to human receptor), under the control of a CMV promoter containing a tet-on element for tetracycline-inducible expression. GPR119 agonist-induced cyclic AMP (cAMP) production was measured in this cell line using the LANCE cAMP kit (Perkin Elmer, Waltham, Mass.). To generate a working stock of cells for the assay, cells were treated overnight with 1 μg/mL doxycycline at 37° C. in the presence of 5% CO2 to induce receptor expression. Cells were then harvested by enzymatic dissociation with 0.05% trypsin, resuspended in freezing medium (DMEM growth medium with 10% each of fetal bovine serum and DMSO), aliquoted and frozen at −80° C. On the day of the assay, frozen cells were thawed, washed 1× in PBS and resuspended in Hank's buffered salt solution (HBSS) containing 5 mM HEPES, 0.1% BSA and Alexa Fluor 647-conjugated anti-cAMP antibody (diluted 1:100). The cell suspension was then transferred to a Proxiplate Plus white 384-well assay plate (Perkin-Elmer) at 2000 cells/well. Test compounds at final concentrations ranging from 0.2 nM to 10 μM were added to the assay plate, followed by a one-hour incubation at ambient temperature (volume=10 μL/well). DMSO concentration was held constant at 0.5%. After incubation with test compounds, 10 μL of a detergent buffer containing a biotinylated cAMP/Europium-conjugated streptavidin complex (Europium-labeled cAMP tracer) were added to each well on the assay plate, followed by a 2-hour incubation at ambient temperature. During this incubation cAMP released from lysed cells competes with the Europium-labeled cAMP tracer for binding to the Alexa Fluor 647-conjugated antibody. […] Cellular cAMP levels were then determined by interpolation of raw signal data using a cAMP standard curve. Compounds were determined to have agonist activity if they stimulated a 1.5-fold or greater increase in cAMP relative to basal levels.
On the technique in general: In TR-FRET formats the signal depends on donor and acceptor labels being close together.

For `CS(=O)(=O)c1cc(F)c(N[C@H]2CCCN(C3CCN(c4noc(C(F)F)n4)CC3)C2=O)cc1F` [Example 33, (S)-3-(2,5-difluoro-4-(methylsulfonyl)phenylamino)-1′-(5-(difluoromethyl)-1,2,4-oxadiazol-3-yl)-1,4′-bipiperidin-2-one], the “cAMP production in HEK-293 cells” value came out at 10.1 nmol and the Fold over baseline came out at 2.5.
For `CCS(=O)(=O)c1ccc(N[C@H]2CCN(C3CCN(c4noc(C(F)(F)F)n4)CC3)C2=O)c(F)c1` [Example 34, (S)-3-(4-(ethylsulfonyl)-2-fluorophenylamino)-1-(1-(5-(trifluoromethyl)-1,2,4-oxadiazol-3-yl)piperidin-4-yl)pyrrolidin-2-one] the same measures were 7.3 nmol and 2.8.
The matching figures for `CS(=O)(=O)c1ccc(N[C@H]2CCN(C3CCN(c4noc(CC(F)(F)F)n4)CC3)C2=O)c(F)c1` [Example 36, (S)-3-(2-fluoro-4-(methylsulfonyl)phenylamino)-1-(1-(5-(2,2,2-trifluoroethyl)-1,2,4-oxadiazol-3-yl)piperidin-4-yl)pyrrolidin-2-one]: 9.9 nmol and 4.3.
The matching figures for `CCCc1nc(N2CCC(N3CC[C@H](Nc4ccc(S(C)(=O)=O)cc4F)C3=O)CC2)no1` [Example 37]: 12.2 nmol and 3.7.
As for `CS(=O)(=O)c1ccc(N[C@H]2CCN(C3CCN(c4noc(-c5ccccn5)n4)CC3)C2=O)c(F)c1` [Example 38, (S)-3-(2-fluoro-4-(methylsulfonyl)-phenylamino)-1-(1-(5-(pyridin-2-yl)-1,2,4-oxadiazol-3-yl)piperidin-4-yl)pyrrolidin-2-one], the “cAMP production in HEK-293 cells” value was found to be 9.0 nmol and the Fold over baseline is reported as 3.5.
For `CC(C)(c1nc(N2CCC(N3CC[C@H](Nc4ccc(S(C)(=O)=O)cc4F)C3=O)CC2)no1)C(F)(F)F` [Example 39, (S)-3-(2-fluoro-4-(methylsulfonyl)-phenylamino)-1-(1-(5-(1,1,1-trifluoro-2-methylpropan-2-yl)-1,2,4-oxadiazol-3-yl)piperidin-4-yl)pyrrolidin-2-one] the same measures were 8.7 nmol and 2.9.
As for `CS(=O)(=O)c1ccc(N[C@H]2CCN(C3CCN(c4noc(C5CCC5)n4)CC3)C2=O)c(F)c1` [Example 40, (S)-1-(1-(5-cyclobutyl-1,2,4-oxadiazol-3-yl)piperidin-4-yl)-3-(2-fluoro-4-(methylsulfonyl)-phenylamino)pyrrolidin-2-one], the “cAMP production in HEK-293 cells” value was determined as 17.5 nmol and the Fold over baseline is listed as 5.7.
The matching figures for `CC[C@H](C)c1nc(N2CCC(N3CC[C@H](Nc4ccc(S(C)(=O)=O)cc4F)C3=O)CC2)no1` [Example 41, (S)-1-(1-(5-sec-butyl-1,2,4-oxadiazol-3-yl)piperidin-4-yl)-3-(2-fluoro-4-(methylsulfonyl)phenylamino)-pyrrolidin-2-one]: 15.9 nmol and 4.0.
The matching figures for `CC(C)(F)c1nc(N2CCC(N3CC[C@H](Nc4ccc(S(C)(=O)=O)cc4F)C3=O)CC2)no1` [Example 42, (S)-3-(2-fluoro-4-(methylsulfonyl)-phenylamino)-1-(1-(5-(2-fluoropropan-2-yl)-1,2,4-oxadiazol-3-yl)piperidin-4-yl)pyrrolidin-2-one]: 12.5 nmol and 5.1.
The matching figures for `CS(=O)(=O)c1ccc(N[C@H]2CCN(C3CCN(c4noc(C5CCCC5)n4)CC3)C2=O)c(F)c1` [Example 43, (S)-1-(1-(5-cyclopentyl-1,2,4-oxadiazol-3-yl)piperidin-4-yl)-3-(2-fluoro-4-(methylsulfonyl)-phenylamino)-pyrrolidin-2-one]: 14.7 nmol and 3.6.
On to `CS(=O)(=O)c1ccc(N[C@H]2CCN(C3CCN(c4noc(-c5ccccc5)n4)CC3)C2=O)c(F)c1` [Example 44, (S)-3-(2-fluoro-4-(methylsulfonyl)-phenylamino)-1-(1-(5-phenyl-1,2,4-oxadiazol-3-yl)piperidin-4-yl)pyrrolidin-2-one], for which the “cAMP production in HEK-293 cells” value is 19.5 nmol and the Fold over baseline is on record as 6.8.
The matching figures for `CS(=O)(=O)c1ccc(N[C@H]2CCN(C3CCN(c4noc(C5CC5)n4)CC3)C2=O)c(F)c1` [Example 45, (S)-1-(1-(5-cyclopropyl-1,2,4-oxadiazol-3-yl)piperidin-4-yl)-3-(2-fluoro-4-(methylsulfonyl)-phenylamino)-pyrrolidin-2-one]: 13.3 nmol and 5.3.
For `CS(=O)(=O)c1ccc(N[C@H]2CCN(C3CCN(c4noc(C5(C(F)(F)F)CC5)n4)CC3)C2=O)c(F)c1` [Example 46, (S)-3-(2-fluoro-4-(methylsulfonyl)-phenylamino)-1-(1-(5-(1-(trifluoromethyl)-cyclopropyl)-1,2,4-oxadiazol-3-yl)piperidin-4-yl)pyrrolidin-2-one] the same measures were 8.2 nmol and 2.7.
The matching figures for `CCC(F)(F)c1nc(N2CCC(N3CC[C@H](Nc4ccc(S(C)(=O)=O)cc4F)C3=O)CC2)no1` [Example 47, (S)-1-(1-(5-(1,1-difluoropropyl)-1,2,4-oxadiazol-3-yl)piperidin-4-yl)-3-(2-fluoro-4-(methylsulfonyl)-phenylamino)pyrrolidin-2-one]: 17.2 nmol and 2.5.
In the case of `CC(F)(F)c1nc(N2CCC(N3CCC[C@H](Nc4cc(F)c(S(C)(=O)=O)cc4F)C3=O)CC2)no1` [Example 48, (S)-3-(2,5-difluoro-4-(methylsulfonyl)phenylamino)-1′-(5-(1,1-difluoroethyl)-1,2,4-oxadiazol-3-yl)-1,4′-bipiperidin-2-one], the “cAMP production in HEK-293 cells” value amounted to 8.4 nmol and the Fold over baseline stood at 2.3.
For `CC(F)(F)c1nc(N2CCC(N3CC[C@H](Nc4ccc(S(C)(=O)=O)cc4F)C3=O)CC2)no1` [Example 49, (S)-1-(1-(5-(1,1-difluoroethyl)-1,2,4-oxadiazol-3-yl)piperidin-4-yl)-3-(2-fluoro-4-(methylsulfonyl)phenylamino)pyrrolidin-2-one] the same measures were 20.8 nmol and 2.7.
The matching figures for `CC(F)(F)c1nc(N2CCC(N3CCC[C@H](Nc4c(F)cc(S(C)(=O)=O)cc4F)C3=O)CC2)no1` [Example 50, (S)-3-(2,6-difluoro-4-(methylsulfonyl)phenylamino)-1′-(5-(1,1-difluoroethyl)-1,2,4-oxadiazol-3-yl)-1,4′-bipiperidin-2-one]: 3.9 nmol and 1.7.
For `CS(=O)(=O)c1ccc(N[C@H]2CCN(C3CCN(c4noc(N5CCCC5)n4)CC3)C2=O)c(F)c1` [Example 51] the same measures were 16.3 nmol and 2.9.
For `CC(F)(F)c1nc(N2CCC(N3CC[C@H](Oc4cc(F)c(S(C)(=O)=O)cc4F)C3=O)CC2)no1` [Example 52, (S)-3-(2,5-difluoro-4-(methylsulfonyl)phenoxy)-1-(1-(5-(1,1-difluoroethyl)-1,2,4-oxadiazol-3-yl)piperidin-4-yl)pyrrolidin-2-one], the “cAMP production in HEK-293 cells” value worked out at 15.5 nmol and the Fold over baseline turned out to be 5.8.
For `CS(=O)(=O)c1cc(F)c(N[C@H]2CCCCN(C3CCN(c4noc(C(F)(F)F)n4)CC3)C2=O)cc1F` [Example 53, (S)-3-(2,5-difluoro-4-(methylsulfonyl)phenylamino)-1-(1-(5-(trifluoromethyl)-1,2,4-oxadiazol-3-yl)piperidin-4-yl)azepan-2-one] the same measures were 11.8 nmol and 4.7.
For `CS(=O)(=O)c1cc(F)c(O[C@H]2CCCN(C3CCN(c4noc(C(F)(F)F)n4)CC3)C2=O)cc1F` [Example 54, (S)-3-(2,5-difluoro-4-(methylsulfonyl)phenoxy)-1′-(5-(trifluoromethyl)-1,2,4-oxadiazol-3-yl)-[1,4′-bipiperidin]-2-one] the same measures were 19.9 nmol and 4.9.
The matching figures for `CC(F)(F)c1nc(N2CCC(N3CCC[C@H](Oc4cc(F)c(S(C)(=O)=O)cc4F)C3=O)CC2)no1` [Example 55, (S)-3-(2,5-difluoro-4-(methylsulfonyl)phenoxy)-1′-(5-(1,1-difluoroethyl)-1,2,4-oxadiazol-3-yl)-[1,4′-bipiperidin]-2-one]: 17.3 nmol and 3.7.
